{
  "source": "patent US9029415B2",
  "about": "“Cooling mixtures with an enhanced cooling effect of 5-methyl-2-(propane-2-yl)cyclohexyl-N-ethyloxamate” (Symrise AG, priority 2010, dated 2015)",
  "key": {"skin": {"test_system": "skin", "experiment": "Cooling effect of the formulation examples as perceived by the test persons", "format": "in vivo, human", "text": "Provided the corresponding formulations also contained trans-4-tert. butylcyclohexanol, the cooling effect was even further enhanced compared to formulations without this compound."}, "[1]": {"test_system": "skin (both cheeks) of test persons", "experiment": "In-vivo half-side cheek test of cooling intensity of O/W cream samples (20 panellists, scale 1-10, 30 minutes)", "design": "species or system human", "settings": "FIG. 1", "protocol": "The aim of the human in vivo studies was to test the effect of the cooling mixture according to the invention in O/W formulations with regard to their cooling intensity. What was to be examined here was whether the cooling effect/cooling intensity of 5-methyl-2-(propane-2-yl)cyclohexyl-N-ethyloxamate will be enhanced in the combination of active substances according to the invention. Each individual test was carried out using 20 panellists under standardized conditions in a test institute. To this end, each test person spread two defined quantities of cream samples onto both cheeks at the same time. […] Upon application of the samples, the test persons evaluated the cooling intensities on a scale of 1-10 within a period of 30 minutes (1=weak; 10=strong). The studies were carried out as double blind studies, therefore the test institute received the formulations in an encoded form. In order to ensure test standardization, the following conditions were selected: • Controlled ventilation and temperature conditions in the room of the test persons • Use of a standardized test protocol • Detailed explanation of the test protocol • Samples were given to the test persons in uniform, clear containers • Samples were labeled with a three-digit code • A sample amount of 0.3 g of cream was applied onto each cheek • Samples were covered with a lid in order to avoid drying out of the samples • Test persons were instructed not to use any makeup on the day of the test and not to use any cosmetic products at least two hours before the test • The test persons evaluated the cooling effect of the two products on a scale of 1-10 (1=weak, 10=strong) at 32 identical points in time\nThe data obtained during the studies was examined with regard to any significant differences between the two samples. To this end, the data was initially examined for standard normal distribution. Provided the data met the criteria of a standard normal distribution, a pairwise t test was carried out. […] Where no normal distribution of the values was found, significance was determined via a non-parametric Wilcoxon. […]"}},
  "data": [
    {"compound": "CCCCC(O)CO", "note": "(centres unmarked) [1,2-hexanediol]", "values": [
      {"measurement": "enhancement of cooling effect when 1,2-pentanediol is replaced", "setting": "skin; 1,2-pentanediol in the formulations replaced with 1,2-hexanediol at a ratio of 5:3", "result": "comparable effects are achieved"}
    ]},
    {"compound": "CCNC(=O)C(=O)O[C@@H]1C[C@H](C)CC[C@H]1C(C)C", "note": "[MEO, (1R,2S,5R)-5-methyl-2-(propane-2-yl)cyclohexyl N ethyl oxamate]", "values": [
      {"measurement": "cooling effect (cooling intensity, scale 1-10)", "setting": "[1]; O/W emulsion with 1.0 % MEO, 0.3 g cream per cheek, 20 panellists", "result": "marked cooling effect"},
      {"measurement": "onset of the cooling effect", "setting": "[1]; after application of the formulation onto the cheek", "result": "immediately upon application"},
      {"measurement": "duration of the cooling effect", "setting": "[1]; evaluation period 30 minutes", "result": "more than 30 minutes"}
    ]},
    {"compound": "CCCCCCCCC(O)CO", "note": "(centres unmarked) [1,2-decanediol]", "values": [
      {"measurement": "enhancement of cooling effect when 1,2-pentanediol is replaced", "setting": "skin; 1,2-pentanediol replaced with 1,2-decanediol in an amount of one fifth of the pentanediol", "result": "applies analogously"}
    ]}
  ]
}
